The numbers were not newly measured in patent US5849746A, “Substituted 1,4-piperazine-heteroaryl derivatives as 5-HT1D receptor agonists” (Merck Sharp & Dohme Ltd., priority 1995, dated 1998), which cites them from elsewhere.

For series [1] the following is noted: humans, therapeutic doses.
Series [2] deals with human 5-HT1Dα and 5-HT1Dβ receptor subtypes. The conditions noted are these: cf. WO-A-91/17174, Table 1.

For the compound `CNS(=O)(=O)Cc1ccc2[nH]cc(CCN(C)C)c2c1` [sumatriptan], the adverse cardiovascular events entry in series [1] is on record as “certain adverse cardiovascular events”. For the same compound, the “discrimination between human 5-HT1Dα and 5-HT1Dβ receptor subtypes (in words)” value in series [2] was “barely discriminates between the human 5-HT1Dα and 5-HT1Dβ receptor subtypes”.
